Patent US7501430B2 (ArQule, Inc., priority 2006, dated 2009)

Molecular target: T1, mutant B-RAF (Homo sapiens, UniProt P15056, V600E)
T1 construct: purchased Upstate (Charlottesville, Va.)
Assay: RAF biochemical assay (MEK-1 phosphorylation, anti-phospho MEK1/2 detection)
Settings: not given
Outline: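 Detection is by ELISA: after a 30 min room-temperature reaction, plate-captured GST-MEK-1 is probed with anti-phospho MEK1/2, then an AP-tagged secondary antibody with fluorescent Attophos read-out.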

T1 sequence (P15056 whole entry V600E): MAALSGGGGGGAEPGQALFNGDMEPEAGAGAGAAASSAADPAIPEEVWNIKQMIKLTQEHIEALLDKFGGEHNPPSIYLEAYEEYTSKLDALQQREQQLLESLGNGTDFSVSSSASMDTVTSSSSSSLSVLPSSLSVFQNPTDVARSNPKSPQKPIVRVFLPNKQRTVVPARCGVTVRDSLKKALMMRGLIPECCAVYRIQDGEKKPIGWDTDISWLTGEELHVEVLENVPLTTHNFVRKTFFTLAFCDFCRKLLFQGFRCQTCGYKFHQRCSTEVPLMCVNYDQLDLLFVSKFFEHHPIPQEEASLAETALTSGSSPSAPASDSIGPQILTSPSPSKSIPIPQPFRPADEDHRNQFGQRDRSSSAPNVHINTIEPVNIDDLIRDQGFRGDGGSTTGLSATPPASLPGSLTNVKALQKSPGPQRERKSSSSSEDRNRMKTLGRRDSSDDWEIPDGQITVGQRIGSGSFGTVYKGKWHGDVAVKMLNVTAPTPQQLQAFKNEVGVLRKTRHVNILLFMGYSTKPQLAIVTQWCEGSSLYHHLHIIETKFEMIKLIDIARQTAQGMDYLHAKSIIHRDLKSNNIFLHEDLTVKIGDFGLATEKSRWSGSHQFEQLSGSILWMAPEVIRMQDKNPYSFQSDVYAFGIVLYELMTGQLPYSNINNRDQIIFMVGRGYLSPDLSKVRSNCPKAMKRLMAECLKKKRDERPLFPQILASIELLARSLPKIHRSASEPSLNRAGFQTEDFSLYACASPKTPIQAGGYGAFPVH

| Compound | IC50 [µM] |
| --- | --- |
| O=C([C@@H]1CCCN1)N1CCC[C@@H](Nc2nccc(-c3c(-c4ccc(F)cc4)nc4occn34)n2)C1 [Example 37, 4-[6-(4-fluorophenyl)imi-dazo[2,1-b][1,3]oxazol-5-yl]-N-[(3R)-1-L-prolylpiperidin-3-yl]pyrimidin-2-amine] | > 5 |

Same assay, conditions: @ 10 uM; read-out: Mutant B-RAF % inhibition

| Compound | inhibition at 10 µM [%] |
| --- | --- |
| CC(=O)Nc1nc(C)c(S(=O)(=O)N2CCC[C@@H](Nc3nccc(-c4c(-c5ccc(F)cc5)nc5occn45)n3)C2)s1 [Example 64, N-(5-{[(3R)-3-({4-[6-(4-fluorophenyl)imidazo[2,1-b][1,3]oxazol-5-yl]pyrimidin-2-yl}amino)piperidin-1-yl]sulfonyl}-4-methyl-1,3-thiazol-2-yl)acetamide] | 58 |
| Cc1ccc(NC(=O)N2CCC[C@@H](Nc3nccc(-c4c(-c5ccc(F)cc5)nc5occn45)n3)C2)cc1 [Example 17] | 16 |
| O=C(NCc1ccc(F)cc1)N1CCC(Nc2nccc(-c3c(-c4ccc(F)cc4)nc4occn34)n2)CC1 [Example 194, N-(4-fluorobenzyl)-4-({4-[6-(4-fluorophenyl)imidazo[2,1-b][1,3]oxazol-5-yl]pyrimidin-2-yl}amino)piperidine-1-carboxamide] | 55 |
| Fc1ccc(-c2nc3sccn3c2-c2ccnc(N[C@H]3CCNC3)n2)cc1 [Example 275, 4-[6-(4-fluorophenyl)imidazo[2,1-b][1,3]thiazol-5-yl]-N-[(3S)-pyrrolidin-3-yl]pyrimidin-2-amine] | 30 |
| O=C(Nc1ccc(F)cc1)N1CCC(Nc2nccc(-c3c(-c4ccc(F)cc4)nc4sccn34)n2)CC1 [Example 295, N-(4-fluorophenyl)-4-({4-[6-(4-fluorophenyl)imidazo[2,1-b][1,3]thiazol-5-yl]pyrimidin-2-yl}amino)piperidine-1-carboxamide] | 49 |
| O=C(C1CCCCC1)N1CCC(Nc2nccc(-c3c(-c4ccc(F)cc4)nc4occn34)n2)CC1 [Example 164, N-[1-(cyclohexylcarbonyl)piperidin-4-yl]-4-[6-(4-fluorophenyl)imidazo[2,1-b][1,3]oxazol-5-yl]pyrimidin-2-amine] | 38 |
| CS(=O)(=O)N1CCC(Nc2nccc(-c3c(-c4ccccc4Cl)nc4occn34)n2)CC1 [Example 311, 4-[6-(2-chlorophenyl)imidazo[2,1-b][1,3]oxazol-5-yl]-N-[1-(methylsulfonyl)piperidin-4-yl]pyrimidin-2-amine] | 61 |
| CC(=O)N1CCC(Nc2nccc(-c3c(-c4ccccc4Cl)nc4occn34)n2)CC1 [Example 302, N-(1-acetylpiperidin-4-yl)-4-[6-(2-chlorophenyl)imidazo[2,1-b][1,3]oxazol-5-yl]pyrimidin-2-amine] | 39 |
| CC(=O)Nc1nc(C)c(S(=O)(=O)N2CCC(Nc3nccc(-c4c(-c5ccc(F)cc5)nc5occn45)n3)CC2)s1 [Example 228, N-(5-{(4-({4-[6-(4-fluorophenyl)imidazo[2,1-b][1,3]oxazol-5-yl]pyrimidin-2-yl}amino)piperidin-1-yl]sulfonyl}-4-methyl-1,3-thiazol-2-yl)acetamide] | 40 |
| CC(=O)N1CCC(Nc2nccc(-c3c(-c4ccc(F)cc4F)nc4occn34)n2)CC1 [Example 310, N-(1-acetylpiperidin-4-yl)-4-[6-(2,4-difluorophenyl)imidazo[2,1-b][1,3]oxazol-5-yl]pyrimidin-2-amine] | 33 |

Same assay, conditions: read-out: Mutant B-RAF % inhibition

| Compound | inhibition at 10 µM [%] |
| --- | --- |
| O=S(=O)(c1ccc(Oc2ccccc2)cc1)N1CCC[C@@H](Nc2nccc(-c3c(-c4ccc(F)cc4)nc4occn34)n2)C1 [Example 60, 4-[6-(4-fluorophenyl)imi-dazo[2,1-b][1,3]oxazol-5-yl]-N-{(3R)-1-[(4-phenoxy-phenyl)sulfonyl]piperidin-3-yl}pyrimidin-2-amine] | 15 |

Same assay, conditions: read-out: Mutant B-RAF IC50

| Compound | IC50 [µM] |
| --- | --- |
| CS(=O)(=O)N1CCC(Nc2nccc(-c3c(-c4cccc(O)c4)nc4occn34)n2)CC1 [Example 342, 3-[5-(2-{[1-(methylsulfonyl)piperidin-4-yl]amino}pyrimidin-4-yl)imidazo[2,1-b][1,3]oxazol-6-yl]phenol] | 0.258 |
| O=[N+]([O-])c1ccccc1-c1nc2sccn2c1-c1ccnc(NC2CCN(S(=O)(=O)c3ccc(Cl)cc3)CC2)n1 [Example 274, N-{1-((4-chlorophenyl)sulfonyl]piperidin-4-yl}-4-[6-(2-nitrophenyl)imidazo[2,1-b][1,3]thiazol-5-yl]pyrimidin-2-amine] | 0.722 |
| N#Cc1ccc(S(=O)(=O)N2CCC[C@@H](Nc3nccc(-c4c(-c5ccc(F)cc5)nc5occn45)n3)C2)cc1 [Example 55, 4-{[(3R)-3-({4-[6-(4-fluorophenyl)imidazo[2,1-b][1,3]oxazol-5-yl]pyrimidin-2-yl}amino)piperidin-1-yl]sulfonyl}benzonitrile] | 0.63 |
| O=C(Nc1ccc(F)c(F)c1)N1CCC(Nc2nccc(-c3c(-c4ccc(F)cc4)nc4occn34)n2)CC1 [Example 193, N-(3,4-difluorophenyl)-4-({4-[6-(4-fluorophenyl)imidazo[2,1-b][1,3]oxazol-5-yl]pyrimidin-2-yl}amino)piperidine-1-carboxamide] | 1.23 |
| Cc1cn2c(-c3ccnc(NC4CCN(C(=O)NCc5ccccc5)CC4)n3)c(-c3ccc(F)cc3)nc2s1 [Example 241, N-benzyl-4-({4-[6-(4-fluorophenyl)-2-methylimidazo[2,1-b][1,3]thiazol-5-yl]pyrimidin-2-yl}amino)piperidine-1-carboxamide] | 2.53 |
| COc1cccc(-c2nc3sccn3c2-c2ccnc(N[C@@H]3CCCN(S(=O)(=O)c4ccc(Cl)cc4)C3)n2)c1 [Example 95, N-{(3R)-1-[(4-chlorophenyl)sulfonyl]piperidin-3-yl}-4-[6-(3-methoxyphenyl)imidazo[2,1-b][1,3]thiazol-5-yl]pyrimidin-2-amine] | 0.147 |
| CCOC(=O)c1ccc(-c2nc3sccn3c2-c2ccnc(N[C@@H]3CCCN(S(=O)(=O)c4ccc(Cl)cc4)C3)n2)cc1 [Example 361, ethyl 4-{5-[2-({(3R)-1-[(4-chlorophenyl)sulfonyl]piperidin-3-yl}amino)pyrimidin-4-yl]imidazo[2,1-b][1,3]thiazol-6-yl}benzoate] | 3.25 |
| O=S(=O)(c1ccc(Cl)cc1)N1CCC[C@@H](Nc2nccc(-c3c(-c4ccc(/C=N/O)cc4)nc4sccn34)n2)C1 [Example 392, 4-{5-[2-({(3R)-1-[(4-chlorophenyl)sulfonyl]piperidin-3-yl}amino)pyrimidin-4-yl]imidazo[2,1-b][1,3]thiazol-6-yl}benzaldehyde oxime] | 0.698 |
| Cc1ccc(-c2nc3scc(C)n3c2-c2ccnc(NC3CCNCC3)n2)cc1 [Example 246, 4-[3-methyl-6-(4-methylphenyl)imidazo[2,1-b][1,3]thiazol-5-yl]-N-piperidin-4-ylpyrimidin-2-amine] | > 10 |
| N#Cc1ccc(S(=O)(=O)N2CCC[C@@H](Nc3nccc(-c4c(-c5cccc(O)c5)nc5sccn45)n3)C2)cc1 [Example 111, 4-{[(3R)-3-({4-[6-(3-hydroxyphenyl)imidazo[2,1-b][1,3]thiazol-5-yl]pyrimidin-2-yl}amino)piperidin-1-yl]sulfonyl}benzonitrile] | 0.028 |
| CS(=O)(=O)Nc1cccc(-c2nc3sccn3c2-c2ccnc(N[C@@H]3CCCN(S(=O)(=O)c4ccc(Cl)cc4)C3)n2)c1 [Example 346, N-(3-{5-[2-({(3R)-1-[(4-chlorophenyl)sulfonyl]piperidin-3-yl}amino)pyrimidin-4-yl]imidazo[2,1-b][1,3]thiazol-6-yl}phenyl)methanesulfonamide] | 0.88 |
| O=S(=O)(c1nnc[nH]1)N1CCC[C@@H](Nc2nccc(-c3c(-c4cccc(O)c4)nc4sccn34)n2)C1 [Example 381, 3-[5-(2-{[(3R)-1-(4H-1,2,4-tri-azol-3-ylsulfonyl)piperidin-3-yl]amino}pyrimidin-4-yl)imidazo[2,1-b][1,3]thiazol-6-yl]phenol] | 0.015 |
| COc1cccc(-c2nc3sccn3c2-c2ccnc(N[C@@H]3CCCN(C(=O)Nc4ccc(F)cc4)C3)n2)c1 [Example 327, (3R)-N-(4-fluorophenyl)-3-({4-[6-(3-methoxyphenyl)imidazo[2,1-b][1,3]thiazol-5-yl]pyrimidin-2-yl}amino)piperidine-1-carboxamide] | 4 |
| COc1cccc(-c2nc3sccn3c2-c2ccnc(N[C@@H]3CCCN(C(=O)Nc4ccc(SC)cc4)C3)n2)c1 [Example 330, (3R)-3-({4-[6-(3-methoxyphenyl)imidazo[2,1-b][1,3]thiazol-5-yl]pyrimidin-2-yl}amino)-N-[4-(methylthio)phenyl]piperidine-1-carboxamide] | 4 |
| O=S(=O)(c1cccc(C(F)(F)F)c1)N1CCC(Nc2nccc(-c3c(-c4ccc(F)cc4)nc4occn34)n2)CC1 [Example 202, 4-[6-(4-fluorophenyl)imidazo[2,1-b][1,3]oxazol-5-yl]-N-(1-{[3-(trifluoromethyl)phenyl]sulfonyl}piperidin-4-yl)pyrimidin-2-amine] | 0.84 |
| COc1cccc(-c2nc3sccn3c2-c2ccnc(N[C@@H]3CCCN(S(=O)(=O)c4ccc(CCC(=O)O)cc4)C3)n2)c1 [Example 118, 3-(4-{[(3R)-3-({4-[6-(3-methoxyphenyl)imidazo[2,1-b][1,3]thiazol-5-yl]pyrimidin-2-yl}amino)piperidin-1-yl]sulfonyl}phenyl)propanoic acid] | 0.229 |
| O=C(COc1ccc(Cl)cc1)N1CCC[C@@H](Nc2nccc(-c3c(-c4ccc(F)cc4)nc4occn34)n2)C1 [Example 29, N-{(3R)-1-[(4-chlorophenoxy)acetyl]piper-idin-3-yl}-4-[6-(4-fluorophenyl)imidazo[2,1-b][1,3]oxazol-5-yl]pyrimidin-2-amine] | 1.82 |

Same assay, conditions: read-out: Mutant B-RAF IC50 (uM) or % inhibition

| Compound | IC50 [µM] |
| --- | --- |
| O=S(=O)(C1CC1)N1CCC[C@@H](Nc2nccc(-c3c(-c4cccc(O)c4)nc4occn34)n2)C1 [Example 397, 3-[5-(2-{[(3R)-1-(cyclopropylsulfonyl)piperidin-3-yl]amino}pyrimidin-4-yl)imidazo[2,1-b][1,3]oxazol-6-yl]phenol] | 2.3 |
